In patent US20190046600A1, “COMPOSITIONS AND USES THEREOF” (priority 2016, published 2019):
Entries after “also recorded” stand apart in the source; their conditions may differ. Square brackets hold non-standard residues; d marks the D form. Peptide text beside a SMILES is read from it. Phe(4-guanidino) = N=C(N)Nc1ccc(C[C@H](N)C(=O)O)cc1

Legend:
[1] = molecular target: T1, recombinant human caspase 3 (Homo sapiens, UniProt P42574); assay: Apo-ONE Homogeneous Caspase-3/7 assay with recombinant caspase-3; type: biochemical; conditions: 0.1 or 0.3 U enzyme
T1 construct: purchased Enzo Life Sciences BML-SE169-5000
T1 sequence (P42574 29-175 limits assumed): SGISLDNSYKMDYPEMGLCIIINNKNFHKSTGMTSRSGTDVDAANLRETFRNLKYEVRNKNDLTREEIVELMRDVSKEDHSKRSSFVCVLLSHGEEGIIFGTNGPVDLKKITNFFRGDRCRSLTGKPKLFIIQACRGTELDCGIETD
T1 sequence (P42574 176-277 limits assumed): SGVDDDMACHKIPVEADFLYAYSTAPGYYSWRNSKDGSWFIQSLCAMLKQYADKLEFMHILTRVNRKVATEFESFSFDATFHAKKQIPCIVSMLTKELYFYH
From the text: DEVD-CHO was used as a positive control.
The Promega kit consists of a buffer that supports caspase 3/7 enzymatic activity and the caspase-3/7 substrate rhodamine 110, bis-(N-CBZL-aspartyl-L-glutamyl-L-valyl-L-aspartic acid amide; Z-DEVD-R110) Z-DEVD-R110 exists as a pro-fluorescent substrate prior to the assay;
upon sequential cleavage and removal of the DEVD peptides by caspase-3/7 activity and excitation at 499 nm, the rhodamine 110 leaving group becomes fluorescent. The amount of fluorescent product generated is reported to be proportional to the amount of caspase-3/7 cleavage that occurs in the sample.
In all subsequent experiments, 0.1 U enzyme was used and plate reader settings were adjusted to read every 5 min for 2h.
The DEVD-CHO control or HILR-030 were co-incubated for 2 hours with substrate or human recombinant caspase-3 according to the protocol in the table below.

[2] = tested on: Lactate Dehydrogenase A [LDHA]; assay: LDH activity assay on lysates of treated NCI-H460 cells (Abcam ab102526); type: cell-based, human; conditions: NCI-H460 cells treated 24 h or 96 h, normalised to protein; read-out: IC50 for inhibiting the activity of LDH
Experimental: An LDH activity assay was conducted on samples derived from NCI-H460 cells treated with 2 test compounds (HILR-025 and HILR-030) for either 24h or 96h. […] Therefore a BCA assay was conducted to estimate the total amount of protein present in each LDH assay lysate and this was used to normalise the enzyme activity data. As an indication of cell viability, an Alamar blue assay was also carried out at both timepoints, to serve as an additional point of reference.
2) Cells were harvested and seeded into 96-well plates at either 500 cells/well (for the 96h timepoint) or 5000 cells/well for the 24h timepoint. […] 6) At the end of the assay (24 or 96h), Alamar blue 10% (v/v) was added to one set of plates, incubated for a further 4 hours, and fluorescent product detected using the BMG FLUOstar plate reader. […] 10) LDH activity was measured in the cleared lysates using an LDH activity kit (Abcam, ab102526). 11) After preparation of the LDH activity assay reactions, according to the manufacturer's instructions, absorbance at 450 nm was measured at the initial time to determine (A450)initial 12) Further absorbance readings were taken at 3 minute intervals for up to 15 minutes. […] 16) The LDH activity of each sample was determined by the following equation:
[formula] […] Protein content in remaining cleared lysates was determined using a BCA assay (ThermoScientific). • b. Data were analysed using GraphPad Prism. […]

NCI-H460 cells [3] = conditions: NCI-H460, 96 hours with compound, alamarBlue
Experimental: Methods measuring cell viability include the use of alamarBlue® cell viability reagent (Life Technologies, Inc.) (resazurin) with fluorescence detection.
1) NCI-H460 cells were grown in Ham's F12 media supplemented with 10% FBS. 2) Cells were harvested and seeded into 96-well plates at 500 cells/well. 3) Compounds were made up from stock solutions and added directly to cells in doubling dilutions starting at 200 μM. Final DMSO concentration was 0.2%. 4) Cells were grown with compound for 96 hours at 37° C. 5% CO2 in a humidified atmosphere. 5) A resazurin dye composition (AlamarBlue® cell viability reagent (Life Technologies, Inc.)) 10% (v/v) was then added and incubated for a further 4 hours, and fluorescent product detected using the BMG FLUOstar plate reader. 6) Media only background readings were subtracted before data were analysed using a 4-parameter logistic equation in GraphPad Prism.

[4] = tested on: NCI-H460 human non-small cell cancer; assay: In vitro cytotoxicity of Olaparib on NCI-H460, alamarBlue, 96 h; type: cell-based; conditions: 30 nM Olaparib
Experimental: 2) Cells were harvested and seeded into 96-well plates at 500 cells/well. […] Final DMSO concentration was 0.3%. 4) Cells were grown with compound for 96 hours at 37° C. 5% CO2 in a humidified atmosphere. 5) AlamarBlue® cell viability reagent (Life Technologies, Inc.) 10% (v/v) was then added and incubated for a further 4 hours, and fluorescent product detected using the BMG FLUOstar plate reader. 6) Data were analysed using a 4-parameter logistic equation in GraphPad Prism.

NCI-H460 cells [5] = assay: HILR-001 with or without 30 nM Olaparib on NCI-H460, alamarBlue and CellTiter-Glo time course; type: cell-based, human
Experimental: At each time point cell viability was measured by two assay readouts, alamarBlue® and CellTiter-Glo. Conversion of alamarBlue® to a fluorescent product serves as a readout of the metabolic activity of cells, whereas CellTiter-Glo is based on quantification of the ATP present.
2) Cells were harvested and seeded into 96-well plates at 500 cells/well. 3) HILR-001 was made up from a 10 mM stock solution and added directly to cells in doubling dilutions starting at 200 μM. […] The total final DMSO concentration was 0.25%. 4) Cells were grown with compound for 24, 48, 72 or 96 hours at 37° C. 5% CO2 in a humidified atmosphere. 5) AlamarBlue® 10% (v/v) was then added and incubated for a further 4 hours, and fluorescent product detected using the BMG FLUOstar plate reader. 6) On duplicate plates the media was removed from the cells, CellTiter-Glo was diluted in PBS (1:10) and 100 μl added to the cells. 7) Plates were mixed on an orbital shaker for 2 minutes and incubated for a further 10 minutes at room temperature. Luminescent signal was then measured using the BMG FLUOstar plate reader.

[6] = 30 nM Olaparib co-incubated with 50 μM HILR-001

Row | IC50 (NCI-H460 cells [3]) | SMILES | caspase-3 activity [1] | IC50 [2] | toxicity to NCI-H460 cells [4] | ATP levels (CellTiter-Glo) (NCI-H460 cells [5]; [6]) | HILR-001-mediated cell death (alamarBlue) (NCI-H460 cells [5]; [6]) | ATP levels or cancer cell death (NCI-H460 cells [5]; Olaparib with higher doses of HILR-001 (100 μM and 200 μM))
1 | 6 µM | CC(C)[C@@H]1NC(=O)[C@@H]2CCCN2C(=O)[C@H](CCCNC(=N)N)NC(=O)[C@@H]2CCCN2C(=O)CNC(=O)[C@H](CCCNC(=N)N)NC(=O)[C@@H]2CCCN2C(=O)[C@H](Cc2c[nH]c3ccccc23)NC(=O)[C@H](Cc2c[nH]c3ccccc23)NC(=O)[C@H](Cc2ccc(NC(=N)N)cc2)NC(=O)[C@H](Cc2ccc(NC(=N)N)cc2)NC(=O)[C@H](Cc2c[nH]c3ccccc23)NC(=O)[C@H](Cc2c[nH]c3ccccc23)NC(=O)[C@H](Cc2ccc(NC(=N)N)cc2)NC(=O)[C@H](Cc2ccc(NC(=N)N)cc2)NC(=O)[C@H](Cc2c[nH]c3ccccc23)NC(=O)[C@H](Cc2c[nH]c3ccccc23)NC1=O [HILR-030] (cyclo(PRGPRPVWW[Phe(4-guanidino)][Phe(4-guanidino)]WW[Phe(4-guanidino)][Phe(4-guanidino)]WW)) | inhibited the caspase-3 activity in a dose-dependent fashion | 22 µM | – | – | – | –
2 | – | O=C(c1cc(Cc2n[nH]c(=O)c3ccccc23)ccc1F)N1CCN(C(=O)C2CC2)CC1 [Olaparib, 4-[3-(4-cyclopropanecarbonylpiperazine-1-carbonyl)-4-fluorobenzyl]-2H-phthalazin-1-one] | – | – | non-toxic | partially reverses the HILR-001-induced fall in ATP; also recorded: partially restored ATP levels | reversed 50 μM HILR-001-mediated cell death | did not affect ATP levels or cancer cell death
